In patent publication US7070965B1, “Small molecule anticancer compounds and related production process” (priority 1998, dated 2006):

What was measured:
[1] = tested on: mouse liver cancer HAC cell line; test: Enhancement of effectiveness of CP, mouse liver cancer HAC ascites model; type: in vivo, Kunming mice; settings: CP 50 mg/kg i.p. only (positive control)
Method: Q-can oral liquid; mouse liver cancer HAC cell line; male Kunming mice weighing 20–25 g; commercial cyclophosphamide (CP).
Forty mice were randomly divided into 5 groups. In three test groups, 36%, 60% and 100% Q-can oral liquids (diluted with water) were given, respectively, while water was given in both control groups. On the 8th day, 0.2 ml HAC cancer cell suspensions (10^7/ml) were injected into the abdominal cavities of each mouse under aseptic condition. On the 1st, 3rd and 5th days after injection. CP (50 mg/kg) was injected i.p. into the mice in all test groups and positive control group. From the 9th day after injection, normal feeding was resumed as before the test. Date of death of each mouse was recorded, and the average life span and the rate of increase in life span were calculated. The rate of increase in life span (ILS %) is defined as following: […]

Lewis mouse lung tumor = tested on: Lewis mouse lung tumor
Method: Concentrated Q-can oral liquid (containing specific branched-chain fatty acids 3.6 mg/ml); Female F1 mice (C57/B1 and DBA/2) weighing 18–22 g; Lewis mouse lung tumor.
The mice of the test group were administrated with concentrated Q-can oral liquid at a daily dose of 36 mg specific branched-chain fatty acids per kg weight for 10 days before transplantation of Lewis mouse lung tumor. All the mice were transplanted subcutaneously in the subaxillary region with a piece of Lewis tumor of approximately 2 mm in diameter. The treatments of intraperitoneal injection of chemotherapy drug Cytoxan (CTX) in 30 mg/kg were given once a day after transplantation over an 8 day period for the positive control group. The treatments for the normal control group were daily injection of normal saline for 8 days. The administration of concentrated Q-can oral liquid for the test group was initiated 10 days before tumor transplantation and continued for another 8 days. Finally all the animals were sacrificed by spinal elongation. Tumors were excised and body and tumor weights were recorded.

[2] = tested on: Human gastric adenocarcinoma SGC-7901 xenograft; test: Human gastric adenocarcinoma SGC-7901 xenografted into nude mice; type: in vivo, Balb/c-nu/nu athymia mice; settings: MMC 2.0 mg/kg i.p. Qd × 14
Method: Female Balb/c-nu/nu athymia mice, 6 weeks old, weighing 18–22 g, housed in specific pathogen free (SPF) condition throughout the course of experiment; concentrated Q-can oral liquid contains 3.6 mg/ml specific branched-chain fatty acids; the drug used for positive control mitomycin C (MMC) was commercially available from Kyowa Hakko Kogyo Co., Ltd., Japan.
Human gastric adenocarcinoma SGC-7901 xenograft was established and maintained. For the experiment, the xenograft fragments of diameter of about 2 mm were inoculated subcutaneously into the right submaxillary regions of nude mice. The animals were randomly divided into five groups five days after inoculation. […] groups, respectively, while concentrated Q-can oral liquid was given in test groups once a day p.o., starting on the same day, at daily doses of 18, 36 and 72 mg branched-chain fatty acids per kg weight, respectively, for 14 days. Experiment was terminated 20 days post-implantation, and mice were sacrificed by spinal elongation. Tumors were removed and the weights of treated versus control tumors were compared. Inhibition rate was calculated. The experiment was repeated once.

[3] = tested on: Human leukemia cell line K562; test: MTT assay, inhibition of cell growth; type: cell-based; settings: Homo sapiens, K562; 30 μg/ml; 24 hours; dissolved with NaOH solution, pH 7.5; read-out: Inhibitory rate (%) on K562 cell growth
Method: MTT assay was performed to test the cytotoxicity. The K562 and SGC7901 cells were maintained in exponential growth in RPMI 1640 medium supplemented with 15% heat-inactivated newborn calf serum. The cells were plated at a density of 2×10^4 cells/100 μl medium/well into 96-well plate with medium containing samples in five final concentrations (7.5, 15, 30, 60 and 90 μg/ml) for iso-C15 (either synthesized or extracted) and one final concentration (30 μg/ml) for the others. The media in control wells contained no samples. The cells were incubated at 37° C. in a highly humidified incubator under 5% CO2 atmosphere for 24 hours. The supernatant was removed by fast inversion of the plate. 20 μl of 5 mg/ml MTT solution were added into each well. Incubation was continued for 4 hours. DMSO 100 μl/well was added and the plate was vibrated for 10 minutes. A570nm was read at the Immunoreader BioTek EL311S.
The inhibition rate (%)=1−(mean A570nm in test wells/mean A570nm in control wells)

[4] = tested on: MCF-7 human breast adenocarcinoma cells; test: Flow cytometry annexin V / PI apoptosis detection; type: cell-based; settings: 60 μg/ml
Method: (§1) Human cancer cell lines DU-145 (prostate cancer), K562 (leukemia), HCT116 (colon cancer), H1688 (lung cancer), SUN423 (hepatocarcinoma), MCF7 (breast cancer), CRL-1687 (pancreatic cancer), and SUN-1 (gastric cancer) were obtained from American Type Culture Collection (ATCC). 30 ml blood was collected from a health person and normal peripheral mononuclear cells were separated by Ficoll separation solution (Sigma). All cells were maintained in RPMI 1640, DMEM, or McCoy medium supplemented with 10% FCS, […] streptomycin and 100 u/ml penicillin. Normal human peripheral mononuclear cells, K562 and SUN-1 were suspended cells. After spinning at 1,500 RPM for 5 min, supernatants were discharged and cells were resuspended and expended in fresh medium. The other tumor cell lines were adherent cells and were dispersed with 0.05% trypsin/0.01% EDTA (Irvine Scientific, CA) for expansion. Cells were seeded in T75 flasks at 2×10^6 cells/flask in culture medium supplemented with 10% fetal bovine serum and incubated overnight at 37° C. with 5% CO2. The adherent cells attached to the plate were striped with disposable cell scrapers (Fisher Scientific) after treated either with 1% iso-C15, anteiso-C15 or control solution for 1, 2, 4, 8 and 24 hours and then combined with respective float cells. Cells were then prepared for flow cytometry analysis, in situ cell death detection, DNA fragmentation and Western blot assay followed the preparation methods for each assay. Cell pellets treated for 2 and 4 hr with either iso-C15 or control were also stored at −70° C. for future studies of gene regulation.
A flow cytometer (FACScan) with Consort 30 software for gating analysis (Becton Dickinson, San Jose, Calif.) was used. The Apoptosis Detection kit (R&D Systems) was used to quantitatively determine the percentage of cells undergoing apoptosis by virtue of their ability to bind annexin V and exclude propidium iodide (PI). Cells were washed in cold PBS twice and resuspended in binding buffer. Fluorescent-labeled annexin V and PI were added to the cells. The cells undergoing apoptosis, expressing phosphotidyiserine on the outer leaflet of cell membranes, would bind annexin V. The cells in later stage of apoptosis or necrosis, with a compromised cell membrane, would allow PI to bind to the cellular DNA. The resulting cells were immediately analyzed by flow cytometer equipped with a single laser emitting excitation light at 488 nm. The annexin V and PI generated signals can be detected in signal detector FL1 and FL2, respectively. […]

[5] = tested on: SNU-1 human gastric carcinoma cell lines; test: Apoptosis morphology, H&E, light microscope; type: cell-based; settings: 60 μg/ml, 8 hours
Method: as §1, with “The adherent cells attached to the plate were striped with disposable cell scrapers (Fisher Scientific) after treated either with 1% iso-C15, anteiso-C15 or control solution for 1, 2, 4, 8 and 24 hours and then combined with respective float cells.” left out, “regulation. […]” for “regulation.”

[6] = tested on: SNU-423 human hepatocellular carcinoma cells; test: Apoptosis morphology, light microscope; type: cell-based; settings: 60 μg/ml, 24 hours
Method: as §1, with “The adherent cells attached to the plate were striped with disposable cell scrapers (Fisher Scientific) after treated either with 1% iso-C15, anteiso-C15 or control solution for 1, 2, 4, 8 and 24 hours and then combined with respective float cells.” left out, “regulation. […]” for “regulation.”

[7] = CTX 30 mg/kg i.p. once a day, 8 days

O=P1(N(CCCl)CCCl)NCCCO1 (stereo not drawn) [CP, cyclophosphamide]
ILS % (rate of increase in life span) [1]: 22.86%
life span [1]: 13.06 ± 3.03 days
mice No (>17 d) [1]: 1
prolonged days [1]: 2.44 ± 2.58 days

O=P1(N(CCCl)CCCl)NCCCO1 (stereo not drawn) [CTX, Cytoxan]
body weight in. (initial) (Lewis mouse lung tumor; CTX 30 mg/kg i.p.): 21.2 g
TIR (Lewis mouse lung tumor; [7]): 62.6%
body weight fi. (final) (Lewis mouse lung tumor; [7]): 20.3 g
tumor weight mean ± SD (Lewis mouse lung tumor; [7]): 0.71 ± 0.36 g
viability (Lewis mouse lung tumor; CTX i.p. injection, 8-day period): 70%

CO[C@@]12[C@H](COC(N)=O)C3=C(C(=O)C(C)=C(N)C3=O)N1C[C@@H]1N[C@@H]12 [MMC, mitomycin C]
Body wt. Fi. ([2]; Test I): 22.0
Body wt. In. ([2]; Test I): 22.4
Inhibition % ([2]; Test I): 71.49%
Tumor wt. X ± SD ([2]; Test I): 0.33 ± 0.24 g
Body wt. Fi. ([2]; Test II): 21.1/21.1
Body wt. In. ([2]; Test II): 21.1/21.1
Inhibition % ([2]; Test II): 73.51%
Tumor wt. X ± SD ([2]; Test II): 0.30 ± 0.33 g

CCC(C)CCCCCCCCCC(=O)O (stereo not drawn) [anteiso-C14, 11-methyltridecanoic acid]
inhibition at 30 µg/mL [3]: 72.6%

CCC(C)CCCCCCCCCCC(=O)O (stereo not drawn) [anteiso-C15, 12-methyltetradecanoic acid]
FL1/FL2 pattern (annexin V / PI), apoptosis ([4]; 4 hours): many cells were undergoing apoptosis
FL1/FL2 pattern (annexin V / PI), apoptosis ([4]; 24 hours): the majority of cells had already died
morphological changes indicative of apoptosis [5]: chromatin condensation and cytoplasmic granularity were noted
inhibition at 30 µg/mL [3]: 73.1%
morphological changes indicative of apoptosis [6]: exhibited cell volume decrease due to shrinkage and bubbles inside the cell

CCC(C)CCCCCCCCCCCC(=O)O (stereo not drawn) [anteiso-C16, 13-methylpentadecanoic acid]
inhibition at 30 µg/mL [3]: 70.7%

CCC(C)CCCCCCCCCCCCCC(=O)O (stereo not drawn) [anteiso-C18, 15-methylheptadecanoic acid]
inhibition at 30 µg/mL [3]: 71.7%

CC(C)CCCCCCCCC(=O)O [iso-C12, 10-methylundecanoic acid]
inhibition at 30 µg/mL [3]: 70.7%

CC(C)CCCCCCCCCC(=O)O [iso-C13, 11-methyllauric acid]
inhibition at 30 µg/mL [3]: 71%

CC(C)CCCCCCCCCCC(=O)O [iso-C14, 12-methyltridecanoic acid]
inhibition at 30 µg/mL [3]: 72.2%

CC(C)CCCCCCCCCCCCC(=O)O [iso-C16, 14-methylpentadecanoic acid]
inhibition at 30 µg/mL [3]: 71.6%

CC(C)CCCCCCCCCCCCCC(=O)O [iso-C17, 15-methylpalmitic acid]
inhibition at 30 µg/mL [3]: 70.8%

CC(C)CCCCCCCCCCCCCCC(=O)O [iso-C18, 16-methylheptadecanoic acid]
inhibition at 30 µg/mL [3]: 68.4%

CC(C)CCCCCCCCCCCCCCCC(=O)O [iso-C19, 17-methylstearic acid]
inhibition at 30 µg/mL [3]: 69.2%

CC(C)CCCCCCCCCCCCCCCCC(=O)O [iso-C20, 18-methylnonadecanoic acid]
inhibition at 30 µg/mL [3]: 62.6%
